Legend:
GUMC-403 [1] = experiment: viability at highest tested concentration (max response) relative to DMSO (% of DMSO control); higher = less cytotoxic; settings: library / dose series: MIPE library, 11-point 1:3 dilution, 48 h
How it was run: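 GUMC-403 papilloma cells, derived from a patient and expanded by conditional reprogramming, were dispensed at 700/well into 1536-well plates in 5 μL F + Y medium. A pin tool delivered 23 nL of each compound across an 11-point 1:3 dilution series for 48 h. CellTiter-Glo luminescence, read on a ViewLux, was normalised so that vehicle wells equalled 100% and empty wells 0%. Values report viability at the highest tested concentration relative to vehicle control.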

GUMC-403 [2] = experiment: AC50 for reduction of cell viability; higher = less potent; settings: 48 h
[3] = library / dose series: MIPE library, 11-point 1:3 dilution
[4] = library / dose series: NPC library, 8-point 1:5 dilution

| SMILES | viability (GUMC-403 [1]; top concentration 46.1 µM) | AC50 for reduction of cell viability (GUMC-403 [2]; [3]) | viability (GUMC-403 [1]; top concentration 23 µM) | AC50 for reduction of cell viability (GUMC-403 [2]; [4]) |
| --- | --- | --- | --- | --- |
| O=C(NCCCNc1nc(Nc2cccc(NC(=O)N3CCCC3)c2)ncc1I)c1cccs1 | 3.39 | 10.5 µM |  |  |
| COC1=CC(=CC(=C1)C2=CC=C3N=CC\4=C(N(C(=O)\C=C4)C5=CC(=C(C=C5)N6CCNCC6)C(F)(F)F)C3=C2)OC | 28.5 | 16.6 µM |  |  |
| CC(C)Oc1cc(Nc2nc(N[C@@H](C)c3ccc(F)cn3)ncc2Cl)n[nH]1 | 58.4 | 8.33 µM |  |  |
| O=C(Nc1ccc([N+](=O)[O-])cc1Cl)c1cc(Cl)ccc1O | 53.9 | 4.18 µM |  |  |
| COC1=C(OCCCN2CCOCC2)C=CC\3=C1/N=C(/NC(=O)C4=CN=C(N)N=C4)N5CC/N=C35 |  | 0.0645 µM | 43.9 |  |
| CN1CC[C@H]([C@@H](O)C1)C2=C(O)C=C(O)C3=C2O\C(=C/C3=O)C4=CC=CC=C4Cl | 61.2 | 0.132 µM |  |  |
| COC(=O)Nc1ccc(-c2nc(N3CCOCC3)c3cnn(C4CCN(Cc5cccnc5)CC4)c3n2)cc1 | 23.5 | 1.05 µM |  |  |
| Nc1ncnc2c1c(-c1cnc3[nH]ccc3c1)nn2C1CCCC1 | 7.41 | 8.33 µM |  |  |
| N[S+](=O)([O-])OC[C@@H]1C[C@@H](n2ccc3c(N[C@H]4CCc5ccccc54)ncnc32)C[C@@H]1O | 60.8 | 0.469 µM |  |  |
| C[C@@]12C(=O)OC(=O)[C@@]1(C)C1CCC2O1 | 21.1 | 5.9 µM |  |  |
| Nc1nc(N)c2nc(-c3cccc(O)c3)c(-c3cccc(O)c3)nc2n1 | 32.4 | 5.26 µM |  |  |
| N=C(NCCCCCCNC(=N)NC(=N)Nc1ccc(Cl)cc1)NC(=N)Nc1ccc(Cl)cc1 | 5.73 | 26.4 µM |  |  |
| CCc1ccc(OCc2ccccc2C(=O)Nc2ccc3nc(C)cc(N)c3c2)cc1 | 4.25 | 10.5 µM |  |  |
| CC(=O)Nc1ccc([C@H](C)C(=O)Nc2ncc(C(C)C)s2)cc1 | 15.9 | 1.66 µM |  |  |
| Cn1c2ccccc2c2c3c(c4c5ccccc5n(CCC#N)c4c21)CNC3=O | 65.1 | 7.43 µM |  |  |
| CC(C)c1cc(C(=O)N2Cc3ccc(CN4CCN(C)CC4)cc3C2)c(O)cc1O | 75.9 | 0.833 µM |  |  |
| CN(C)C1CCN(C(=O)c2ccc(NC(=O)Nc3nc(N4CCOCC4)nc(N4CCOCC4)n3)cc2)CC1 | 44.5 | 0.0372 µM |  |  |
| O=C(NOCC1CC1)c1ccc(F)c(F)c1Nc1ccc(I)cc1Cl | 20.7 | 23.5 µM |  | 13.3 µM |
| CC(C)C[C@@H](C=O)NC(=O)[C@H](CC(C)C)NC(=O)[C@H](CC(C)C)NC(=O)OCc1ccccc1 | 9.05 | 10.5 µM |  |  |
| C[C@@]12O[C@@H](C[C@]1(O)CO)n1c3ccccc3c3c4c(c5c6ccccc6n2c5c31)CNC4=O | 7.55 | 5.9 µM |  |  |
| CC(C)C[C@H](NC(=O)[C@H](Cc1ccccc1)NC(=O)c1cnccn1)B(O)O | 3.84 | 0.264 µM |  | 0.15 µM |
| CC(C)C[C@H](NC(=O)CNC(=O)c1cc(Cl)ccc1Cl)B(O)O | 14.7 | 3.32 µM |  |  |
| CCNC(=O)Nc1ccc(-c2nc3c(c(N4CCOC[C@@H]4C)n2)CCN(C2COC2)C3)cc1 | 60.3 | 1.18 µM |  |  |
| CNC(=O)c1ccccc1Nc1nc(Nc2ccc(N3CCOCC3)cc2OC)ncc1Cl | 9.51 | 1.48 µM |  |  |
| C/C=C1\NC(=O)[C@H]2CSSCC/C=C\[C@H](CC(=O)N[C@H](C(C)C)C(=O)N2)OC(=O)[C@H](C(C)C)NC1=O | 6.97 | 0.105 µM |  |  |

— the supplement of paper PMC6723410
